Data: patent US7601838B2, “2-Alkyl/aryl sulphonyl-1,2,3,4-tetrahydro-9H-pyrido (3,4-b) indole-3-carboxylic acid esters/amides useful as antithrombotic agents” (Council of Scientific and Industrial Research, priority 2004, dated 2009)

tested on: collagen and epinephrine induced thrombosis in mice; test: Effect on mouse thrombosis: collagen and adrenaline induced pulmonary thromboembolism; type: in vivo; details: 30 μM/kg orally 60 min prior to collagen + adrenaline challenge
Protocol: Pulmonary thromboembolism was induced by following a method of Diminno and Silver^(1). Test compounds (30 μM/Kg) or vehicle were administered orally 60 min prior to the thrombotic challenge. A mixture of collagen (150 μg/ml) and adrenaline (50 μg/mL) was administered by the rapid intravenous injection into the tail vein to induce hind limb paralysis or death. A group of 10 animals were used to evaluate the effect of test compound, while 5 mice were used to assess effect of a standard drug, aspirin and a group of vehicle treated (n=5) mice was also used each experiment.
% Protection was expressed as: […]
Ptest is the number of animals paralyzed/dead in the test compound-treated group, and Pcontrol is the number of animals paralyzed/dead in vehicle treated group.

SMILES | Antithrombotic activity (AT) (% protection)
COC(=O)C1Cc2c([nH]c3ccccc23)CN1S(=O)(=O)c1cccc2ccccc12 (racemic) [d, 2[1-naphthylsulfonyl]-1,2,3,4,-tetrahydro-9H-pyrido[3,4-b]indole-3-carboxylic acid ester] | 20%
NC(=O)C1Cc2c([nH]c3ccccc23)CN1S(=O)(=O)c1cccc([N+](=O)[O-])c1 (stereo not drawn) [u] | 45%
COC(=O)C1Cc2c([nH]c3ccccc23)CN1S(=O)(=O)c1c(C)cc(C)cc1C (racemic) [b, 2[2,4,6, trimethylbenzenesulfonyl]-1,2,3,4,-tetrahydro-9H-pyrido[3,4-b]indole-3-carboxylic acid ester] | 20%
COC(=O)C1Cc2c([nH]c3ccccc23)CN1S(=O)(=O)c1cccc2cccnc12 (racemic) [f, 2[8-quinolinesulfonyl]-1,2,3,4,-tetrahydro-9H-pyrido[3,4-b]indole-3-carboxylic acid ester] | 20%
NC(=O)C1Cc2c([nH]c3ccccc23)CN1S(=O)(=O)c1cccc2ccccc12 (stereo not drawn) [q, 2[-1-naphthylsulfonyl]-1,2,3,4,-tetrahydro-9H-pyrido[3,4-b]indole-3-carboxylic acid amide] | 20%
NC(=O)C1Cc2c([nH]c3ccccc23)CN1S(=O)(=O)c1cc(Cl)ccc1Cl (stereo not drawn) [o, 2[-2,5-dichlorobenzenesulfonyl]-1,2,3,4,-tetrahydro-9H-pyrido[3,4-b]indole-3-carboxylic acid amide] | 40%
COC(=O)C1Cc2c([nH]c3ccccc23)CN1S(=O)(=O)c1cccc2c(N(C)C)cccc12 (racemic) [g, 2-[dansylsulfonyl]-1,2,3,4,-tetrahydro-9H-pyrido[3,4-b]indole-3-carboxylic acid ester] | 20%
COC(=O)C1Cc2c([nH]c3ccccc23)CN1S(=O)(=O)c1c(C(C)C)cc(C(C)C)cc1C(C)C (racemic) [h, 2[2,4,6 triisopropylbenzenesulfonyl]-1,2,3,4,-tetrahydro-9H-pyrido[3,4-b]indole-3-carboxylic acid ester] | 0%
COC(=O)C1Cc2c([nH]c3ccccc23)CN1S(=O)(=O)c1ccc(F)cc1 (racemic) [i, 2[4-fluorobenzenesulfonyl]-1,2,3,4,-tetrahydro-9H-pyrido[3,4-b]indole-3-carboxylic acid ester] | 0%
NC(=O)C1Cc2c([nH]c3ccccc23)CN1S(=O)(=O)c1cccc2cccnc12 (stereo not drawn) [r, 2[8-quinolinesulfonyl]-1,2,3,4,-tetrahydro-9H-pyrido[3,4-b]indole-3-carboxylic acid amide] | 30%
COC(=O)C1Cc2c([nH]c3ccccc23)CN1S(=O)(=O)c1ccc(OC)cc1 (racemic) [e] | 0%
Cc1cc(C)c(S(=O)(=O)N2Cc3[nH]c4ccccc4c3CC2C(N)=O)c(C)c1 (stereo not drawn) [v] | 30%
COC(=O)C1Cc2c([nH]c3ccccc23)CN1S(C)(=O)=O (racemic) [k, 2[methylsulfonyl]-1,2,3,4,-tetrahydro-9H-pyrido[3,4-b]indole-3-carboxylic acid ester] | 50%
NC(=O)C1Cc2c([nH]c3ccccc23)CN1S(=O)(=O)c1ccc(F)cc1 (stereo not drawn) [s, 2[-4-fluorobenzenesulfonyl]-1,2,3,4,-tetrahydro-9H-pyrido[3,4-b]indole-3-carboxylic acid amide] | 60%
COC(=O)C1Cc2c([nH]c3ccccc23)CN1S(=O)(=O)c1ccccc1[N+](=O)[O-] (racemic) [c, 2[2, nitrobenzenesulfonyl]-1,2,3,4,-tetrahydro-9H-pyrido[3,4-b]indole-3-carboxylic acid ester] | 0%
CS(=O)(=O)N1Cc2[nH]c3ccccc3c2CC1C(N)=O (stereo not drawn) [t, 2[methanesulfonyl]-1,2,3,4,-tetrahydro-9H-pyrido[3,4-b]indole-3-carboxylic acid amide] | 30%

same assay, conditions: 10 mg/kg (indomethacin)

SMILES | Antithrombotic activity (AT) (% protection)
COc1ccc2c(c1)c(CC(=O)O)c(C)n2C(=O)c1ccc(Cl)cc1 [Indomethacin, reference compound] | 55 ± 15 (n = 20) %

tested on: stasis induced thrombosis in LPS treated rabbits; test: Rabbit venous thrombosis model (stasis induced thrombosis in LPS treated rabbits); type: in vivo, New Zealand white strain rabbits; details: evaluated at 10 μM/Kg and 30 μM/kg dose
Protocol: [formula] 1.4 Evaluation of coagulation parameters: Blood was collected by cardiac puncture from ether-anaesthetized rat using a syringe containing 3.2% tri-sodium citrate (9:1, v/v). Plasma was obtained by centrifugation of citrated blood at 2500×g for 15 min at 20° C. Stock solutions of the test compounds were prepared freshly in DMSO and were diluted in DMSO. Thrombin time (TT), prothrombin time (PT) and activated partial thromboplastin time (aPTT) were evaluated according to manufacturer's instructions supplied with kits (Stago, France) and measured by Coagulometer (Stago, France)^(4). In each set of experiment effect of DMSO on these parameters was also assessed and was used to calculate change in TT, PT or aPTT. 1.5 Rabbit venous thrombosis model: Experiments were performed on New Zealand white strain rabbits (2-3 kg) either sex. Escherichia coli LPS strain 1055:B5 (Sigma Chemicals, USA) was injected intravenously via ear vein (1 μg/kg)^(5,6). Jugular veins on both sides were exposed and dissected free from surrounding tissue. Two loose surer were placed 1.5 cm apart and all collateral veins were ligated. Four hours after E. coli endotoxin injection (animal is watched for any signs of hypersensitivity reaction during this period), stasis was established and maintained for 45 min by tightening the two sutures. Ligated segments were removed and opened longitudinally and the thrombus was carefully removed and weighed. Heparin sodium (Beparine from beef intestinal mucosa ≧140 USP units/mg; Biological E. Limited, India) was given in doses of (0.5, 0.25, 0.1 mg/kg i.v., via ear vein) 5 min before stasis. 1.6 Effect of compound (i) on human platelet aggregation in vitro: Platelet aggregation study was done on human platelets following isolation of PRP from the human blood as described above (1.3). Aggregation was induced by collagen (10 μg/ml, 5 μg/ml), ADP (10 μM) and thrombin (0.5 U/ml). 2. Results: Effect of test compounds is indicated in the following table (1) against collagen and epinephrine induced thrombosis in mice, which is a primary screening model to detect antithrombotic efficacy of the test agents. At the same dose these compounds were also evaluated for their effect on the bleeding time in mouse (Table 1).
Effect on venous thrombosis model in rabbit: The selected compounds were evaluated at 10 μM/Kg and 30 μM/kg dose for their efficacy against stasis induced thrombosis in LPS treated rabbits. […] Ex vivo effect of selective compounds on rat platelet aggregation: Blood was collected in sodium citrate to obtain PRP and evaluate the ex vivo effect of selective compounds ((i), (ii), (iii) at 30 μM/kg administered by the ip route) against ADP, collagen, phorbol myristate ester (PMA) calcium ionophore (A23187), or thrombin induced aggregation. It was observed that all these compounds were consistent against collagen-induced platelet aggregation (Table 3). (iii) inhibited ADP (10 μM), collagen (10 μg/ml), PMA (1.5 μM), and thrombin (0.64 U/ml) induced platelet aggregation while no inhibition was found against calcium ionophore A23187 (2.5 μg/ml) induced platelet aggregation. […] Effect on clotting parameters: The selected compounds were also tested in vitro for their effect on thrombin time (TT), prothrombin time (PT) and activated partial thromboplastin time (aPTT) at 100 μg/ml and 200 μg/ml in vitro (Table 4). The test compounds at 100 μg/ml had no significant effect of on these parameters. Some effect was though seen on PT at 200 μg/ml concentration, but the concentration seems to be quite high.
Values are Mean±; Compound (i); n=2, Compound (ii); n=4, Compound (iii), n=4 [n is no. of observations in 2 or more animals at 10 μM/Kg or 30 μM/Kg p.o. administered 2 h prior to the stasis] or vehicle control [n=10 observations in five animals]. In heparin treated group n=6 observations for each dose in nine animals.

SMILES | inhibition of thrombus formation (in words)
COC(=O)C1Cc2c([nH]c3ccccc23)CN1S(=O)(=O)c1ccc(C)cc1 (racemic) [n, 2[4-methylbenzenesulfonyl]-1,2,3,4,-tetrahydro-9H-pyrido[3,4-b]indole-3-carboxylic acid ester] | inhibited thrombus formations only at 30 μM/Kg
